Laboratory results reported in PubChem BioAssay AID256 (DTP/NCI, 2004).
“And” between values parts separate entries of the source, which are not always exact repeats. Equal values may be shown once. Inconclusive results and toxic doses are left out.

System: CD2F1 mice, L1210 leukemia ip, survival T/C
Assay: NCI In Vivo Anticancer Drug Screen. Data for tumor model L1210 Leukemia (intraperitoneal) in CD2F1 (CDF1) mice
Conditions: higher = longer survival
Method in brief: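 Activity against a transplanted murine tumor was judged by comparing the compound group with a vehicle group. The outcome in the treated animals was divided by that in the controls.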

[1] = endpoint: mean survival time, dose: 100.0 mg/kg/injection, schedule: Q01DX009 (ip), vehicle: saline with Tween-80
[2] = endpoint: mean survival time, dose: 100.0 mg/kg/injection, schedule: Q04DX003 (ip), vehicle: saline with Tween-80
[3] = endpoint: mean survival time, dose: 200.0 mg/kg/injection, schedule: Q01DX009 (ip), vehicle: saline with Tween-80
[4] = endpoint: mean survival time, dose: 200.0 mg/kg/injection, schedule: Q04DX003 (ip), vehicle: saline with Tween-80
[5] = endpoint: mean survival time, dose: 400.0 mg/kg/injection, schedule: Q01DX009 (ip), vehicle: saline with Tween-80
[6] = endpoint: mean survival time, dose: 400.0 mg/kg/injection, schedule: Q04DX003 (ip), vehicle: saline with Tween-80
[7] = endpoint: mean survival time, dose: 100.0 mg/kg/injection, schedule: Q01DX001 (ip), vehicle: saline with Tween-80
[8] = endpoint: mean survival time, dose: 200.0 mg/kg/injection, schedule: Q01DX001 (ip), vehicle: saline with Tween-80
[9] = endpoint: mean survival time, dose: 400.0 mg/kg/injection, schedule: Q01DX001 (ip), vehicle: saline with Tween-80
[10] = endpoint: mean survival time, dose: 25.0 mg/kg/injection, schedule: Q01DX009 (ip), vehicle: saline with Tween-80
[11] = endpoint: mean survival time, dose: 50.0 mg/kg/injection, schedule: Q01DX009 (ip), vehicle: saline with Tween-80

`CC(C)CCOC(=O)CN(CC(=O)OCCC(C)C)c1ccccc1` was tested, and the T/C [1] was 89 % of control, the T/C [2] was 95 % of control and the T/C [3] was 91 % of control. For the same compound, the T/C [4] was 97 % of control, the T/C [5] was 97 % of control and the T/C [6] was 105 % of control.
For `CCN=C(N)c1ncnnc1N`, the T/C (endpoint: mean survival time, dose: 100.0 mg/kg/injection, schedule: Q01DX001 (ip), vehicle: carboxymethylcellulose (CMC)) was 104 % of control, the T/C (endpoint: mean survival time, dose: 200.0 mg/kg/injection, schedule: Q01DX001 (ip), vehicle: carboxymethylcellulose (CMC)) was 102 % of control and the T/C (endpoint: mean survival time, dose: 400.0 mg/kg/injection, schedule: Q01DX001 (ip), vehicle: carboxymethylcellulose (CMC)) was 102 % of control.
`C[N+](C)(CCCCCC[N+](C)(C)Cc1ccccc1)Cc1ccccc1` was tested, and the T/C (endpoint: mean survival time, dose: 1.25 mg/kg/injection, schedule: Q01DX009 (ip), vehicle: saline with Tween-80) was 93 % of control, the T/C (endpoint: mean survival time, dose: 2.5 mg/kg/injection, schedule: Q01DX009 (ip), vehicle: saline with Tween-80) was 93 % of control and the T/C (endpoint: mean survival time, dose: 5.0 mg/kg/injection, schedule: Q01DX009 (ip), vehicle: saline with Tween-80) was 93 % of control. The T/C (endpoint: median survival time, dose: 0.63 mg/kg/injection, schedule: Q04DX002 (ip), vehicle: saline with Tween-80) was 112 % of control, the T/C (endpoint: median survival time, dose: 1.25 mg/kg/injection, schedule: Q04DX002 (ip), vehicle: saline with Tween-80) was 100 % of control and the T/C (endpoint: median survival time, dose: 2.5 mg/kg/injection, schedule: Q04DX002 (ip), vehicle: saline with Tween-80) was 100 % of control. The T/C (endpoint: median survival time, dose: 5.0 mg/kg/injection, schedule: Q04DX002 (ip), vehicle: saline with Tween-80) was 100 % of control.
In the case of `Cc1ccc(S(=O)(=O)Nc2ccccc2)c(CC(O)(c2ccccc2)c2ccccc2)c1`, the T/C [2] is reported as 88 % of control and the T/C [4] is reported as 88 % of control.
With `CC(=O)OC1CCC2(C)C(=CCC3C2CCC2(C)C(C(C)C(=O)O)CCC32)C1` (stereo not drawn) the T/C [7] was 102 % of control, the T/C [8] was 100 % of control and the T/C [9] was 96 % of control.
In the case of `CCOC(=O)CCC(NC(=O)OCCNCCCl)C(=O)OCC` (stereo not drawn), the T/C (endpoint: mean survival time, dose: 40.0 mg/kg/injection, schedule: Q01DX Z (ip), vehicle: saline) is reported as 100 % of control, the T/C (endpoint: mean survival time, dose: 80.0 mg/kg/injection, schedule: Q01DX Z (ip), vehicle: saline) is reported as 96 % of control and the T/C (endpoint: mean survival time, dose: 160.0 mg/kg/injection, schedule: Q01DX Z (ip), vehicle: saline) is reported as 103 % of control. The T/C (endpoint: mean survival time, dose: 320.0 mg/kg/injection, schedule: Q01DX Z (ip), vehicle: saline) was 117 % of control.
With `O=C1c2ccccc2C(C2c3ccccc3C(=O)c3ccccc32)c2ccccc21` the T/C [2] was 110 % of control, the T/C [4] was 96 % of control and the T/C [6] was 100 % of control.
With `CCN1/C(=C\c2ccc3cc(C)ccc3[n+]2CC)[Se]c2ccccc21` the T/C (endpoint: mean survival time, dose: 1.25 mg/kg/injection, schedule: Q01DX001 (ip), vehicle: other) was 105 % of control, the T/C (endpoint: mean survival time, dose: 2.5 mg/kg/injection, schedule: Q01DX001 (ip), vehicle: other) was 101 % of control and the T/C (endpoint: mean survival time, dose: 5.0 mg/kg/injection, schedule: Q01DX001 (ip), vehicle: other) was 106 % of control.
For `CCCCN1CCCCC1C(=O)Nc1c(C)cccc1C` (stereo not drawn), the T/C (endpoint: mean survival time, dose: 9.5 mg/kg/injection, schedule: Q01DX001 (ip), vehicle: saline) was 102 % of control, the T/C (endpoint: mean survival time, dose: 19.0 mg/kg/injection, schedule: Q01DX001 (ip), vehicle: saline) was 102 % of control and the T/C (endpoint: mean survival time, dose: 38.0 mg/kg/injection, schedule: Q01DX001 (ip), vehicle: saline) was 100 % of control.
`O=C1OCCN1NCc1ccc(Cl)cc1` was tested, and the T/C (endpoint: mean survival time, dose: 12.5 mg/kg/injection, schedule: Q01DX009 (ip), vehicle: DMSO) was 88 % of control, the T/C (endpoint: mean survival time, dose: 25.0 mg/kg/injection, schedule: Q01DX009 (ip), vehicle: DMSO) was 93 % of control and the T/C (endpoint: mean survival time, dose: 50.0 mg/kg/injection, schedule: Q01DX009 (ip), vehicle: DMSO) was 89 % of control and 91 % of control. For the same compound, the T/C (endpoint: mean survival time, dose: 100.0 mg/kg/injection, schedule: Q01DX009 (ip), vehicle: DMSO) was 96 % of control.
`COP(=O)(O)c1ccccc1` (tested in a mixture with another compound) was tested, and the T/C (endpoint: mean survival time, dose: 100.0 mg/kg/injection, schedule: Q04DX003 (ip), vehicle: saline) was 103 % of control, the T/C (endpoint: mean survival time, dose: 200.0 mg/kg/injection, schedule: Q04DX003 (ip), vehicle: saline) was 106 % of control and the T/C (endpoint: mean survival time, dose: 400.0 mg/kg/injection, schedule: Q04DX003 (ip), vehicle: saline) was 95 % of control.
For `CC(SCc1ccccc1)C(NC(=O)c1ccccc1)C(=O)O` (stereo not drawn), the T/C [1] was 93 % of control, the T/C [2] was 98 % of control and the T/C [3] was 90 % of control. The T/C [4] was 98 % of control, the T/C [5] was 93 % of control and the T/C [6] was 101 % of control.
In the case of `O=C1CCC(=O)N1C1C=CC=CC=C1`, the T/C (endpoint: mean survival time, dose: 50.0 mg/kg/injection, schedule: Q04DX003 (ip), vehicle: acetone) is reported as 98 % of control and the T/C (endpoint: mean survival time, dose: 100.0 mg/kg/injection, schedule: Q04DX003 (ip), vehicle: acetone) is reported as 107 % of control.
With `O=c1cc(-c2ccccc2)nc2c(Cl)cc(Cl)cn12` the T/C [7] was 96 % of control, the T/C [8] was 93 % of control and the T/C [9] was 96 % of control.
`COC(=O)C=P(c1ccccc1)(c1ccccc1)c1ccccc1` was tested, and the T/C (endpoint: mean survival time, dose: 6.25 mg/kg/injection, schedule: Q01DX009 (ip), vehicle: saline with Tween-80) was 97 % of control, the T/C (endpoint: mean survival time, dose: 6.25 mg/kg/injection, schedule: Q04DX003 (ip), vehicle: saline with Tween-80) was 98 % of control and the T/C (endpoint: mean survival time, dose: 12.5 mg/kg/injection, schedule: Q01DX009 (ip), vehicle: saline with Tween-80) was 103 % of control. For the same compound, the T/C (endpoint: mean survival time, dose: 12.5 mg/kg/injection, schedule: Q04DX003 (ip), vehicle: saline with Tween-80) was 101 % of control, the T/C [10] was 97 % of control and 94 % of control and the T/C (endpoint: mean survival time, dose: 25.0 mg/kg/injection, schedule: Q04DX003 (ip), vehicle: saline with Tween-80) was 95 % of control. For the same compound, the T/C [11] was 95 % of control, the T/C [1] was 100 % of control and the T/C [2] was 97 % of control.
In the case of `CCOC(CNCc1ccc(OC)cc1)OCC`, the T/C (endpoint: mean survival time, dose: 100.0 mg/kg/injection, schedule: Q01DX001 (ip), vehicle: saline) is reported as 104 % of control and the T/C (endpoint: mean survival time, dose: 200.0 mg/kg/injection, schedule: Q01DX001 (ip), vehicle: saline) is reported as 111 % of control.
With `CCOC(=O)NCNC(C)C(=O)O` (stereo not drawn) the T/C (endpoint: mean survival time, dose: 50.0 mg/kg/injection, schedule: Q01DX009 (ip), vehicle: saline) was 115 % of control, the T/C (endpoint: mean survival time, dose: 100.0 mg/kg/injection, schedule: Q01DX009 (ip), vehicle: saline) was 104 % of control and the T/C (endpoint: mean survival time, dose: 200.0 mg/kg/injection, schedule: Q01DX009 (ip), vehicle: saline) was 115 % of control.
`Nc1ccn(C2OC(COC(=O)C34CC5CC(CC(C5)C3)C4)C(O)C2O)c(=O)n1` (stereo not drawn) was tested, and the T/C (endpoint: mean survival time, dose: 12.5 mg/kg/injection, schedule: Q01DX009 (ip), vehicle: other) was 201 % of control, the T/C (endpoint: mean survival time, dose: 25.0 mg/kg/injection, schedule: Q01DX009 (ip), vehicle: other) was 282 % of control and the T/C (endpoint: mean survival time, dose: 50.0 mg/kg/injection, schedule: Q01DX009 (ip), vehicle: other) was 365 % of control. The T/C (endpoint: mean survival time, dose: 100.0 mg/kg/injection, schedule: Q01DX009 (ip), vehicle: other) was 253 % of control.
With `CN(C)/C=C1\NC(=S)NC1=O` the T/C [7] was 95 % of control, the T/C [8] was 91 % of control and the T/C [9] was 91 % of control.
`CCOC(=O)/C(C#N)=C\c1cc(OC)ccc1OC` was tested, and the T/C [10] was 102 % of control, the T/C [11] was 94 % of control and the T/C [1] was 104 % of control.
`c1ccc2cc(-c3cc4ccccc4s3)ccc2c1` was tested, and the T/C (endpoint: mean survival time, dose: 264.0 mg/kg/injection, schedule: Q01DX009 (ip), vehicle: saline with Tween-80) was 104 % of control and the T/C [5] was 98 % of control.
